Assay results taken from US10314816B2, “Antimicrobial compounds, compositions and methods of use thereof” (Wisconsin Alumni Research Foundation, priority 2012, dated 2019).
Where two headings read alike, the source gives them in different places.

Legend:
C. crescentus CB15N [1] = assay: MIC of bacterial growth, macrodilution (Table 2); assay type: cell-based, Caulobacter crescentus; conditions: actively growing cells
Procedure: Bacterial strains and growth conditions. Luria-Bertani (LB) media (10 g/L tryptone, 10 g/L NaCl, 5 g/L yeast extract, pH 7.2) was used to grow B. subtilis 168, S. aureus FRI100, and P. aeruginosa K1115 strains. For P. aeruginosa PAO1 and K1119 strains and two E. coli BW25113 strains, M8 minimal media (241 mg/L MgSO4, 4 mg/L glucose, 5 mg/L casamino acids, 12.8 g/L Na2HPO4.7H2O, 3 g/L KH2PO4, and 0.5 g/L NaCl) was used. PYE media (2 g/L peptone, 1 g/L yeast extract, 0.8 mM MgSO4, and 0.5 mM CaCl2) was used for culturing C. crescentus cells at 30° C. All cultures were grown at 37° C., except for C. crescentus (30° C.). All cultures were grown while shaking at 200 rpm.
Determination of the minimum inhibitory concentration (MIC) of bacterial growth. The MIC of various organisms in liquid media was determined using the macrodilution method according to the NCCLS guidelines. For the starting inoculum, cultures were diluted to contain approximately 5×10^5 cells/mL in growth media. To create a two-fold dilution series for the macrodilution technique, each compound was added to the first culture tube (4 mL total volume) at the highest concentration. 2 mL of this culture was diluted into an equal volume of inoculated media (a two-fold dilution). The final volume for each culture was 2 mL.

C. crescentus CB15N [2] = assay: Minimum stationary-bactericidal concentration (MSC); assay type: cell-based, Caulobacter crescentus; conditions: C. crescentus CB15N, stationary cells, 24 hours
Procedure: (§1) Determination of the Minimum Stationary-Bactericidal Concentration.
(§2) Cultures of C. crescentus (24 hour incubation) and S. aureus cells (5 day incubation) were grown from single colonies. Cells were collected by centrifugation (8500 rpm for 2.5 minutes) and re-suspended in M2 salt solution (for C. crescentus; 1.74 g/L Na2HPO4, 1.06 g/L KH2PO4, and 0.5 g/L NH4Cl) or phosphate-buffered saline (for S. aureus; PBS, Fisher Scientific). The centrifugation and re-suspension was repeated two more times. After the repeated washing steps, the cell suspension was diluted 10-fold to achieve approximately 10^8 cells/mL. Aliquots of the diluted cell suspension were transferred into wells of a 96-well plate (100 μL/well), and 2-fold serial dilutions were performed to test a range of antibiotic concentrations. The plate was sealed with Parafilm® and incubated for 24 hours at room temperature in the dark. After incubation, 50 μl was removed from each well to spread on nutrient agar plates (1.5% agar in PYE for C. crescentus, and LB for S. aureus). The colonies on each plate were counted after growing the cells for 1-2 days. For determining the kinetics of bactericidal activity of DCAP on stationary cultures, the washed cells were diluted by 100-fold in appropriate solutions and tested using a single concentration of the compound while including a DMSO control sample. Cell suspensions were kept in closed microcentrifuge tubes instead of the wells of 96-well plates. 100 μL of the suspensions was removed for plating at each time point. All MSC experiments were performed in static conditions.
(§3) In addition to its activity against actively growing bacteria, DCAP kills cells in stationary phase (Table 3). This property was tested against C. crescentus and S. aureus. […] To ensure that bacteria were deprived of nutrients, the cells were grown into late stationary phase (i.e., 24 hours for C. crescentus and 5 days for S. aureus). These cells were collected, suspended in isotonic solutions devoid of amino acids or sugars, and treated with a small molecule (DMSO, DCAP, CCCP or ampicillin). Cell viability was measured over time by plating culture aliquots on non-selective, solid growth media. The minimum concentration of antibiotic required to completely eliminate colony formation was designated as the minimum stationary-bactericidal concentration (MSC). […] CCCP inhibited the proliferation of C. crescentus cells regardless of their physiological status. However, the MSC of CCCP for S. aureus was >300-fold higher than the MIC. This dramatic decrease in the effectiveness of CCCP in S. aureus may be due to changes in membrane composition as cells adjust their metabolism in nutrient-deprived conditions.

S. aureus FRI 100 [3] = assay: as above; assay type: cell-based, Staphylococcus aureus; conditions: S. aureus FRI 100, stationary cells, 24 hours
Procedure: as §1, §2, §3

C. crescentus CB15N [4] = assay: Minimum biofilm inhibitory concentration (bMIC); assay type: cell-based, Caulobacter crescentus
Procedure: (§4) Determination of the minimum biofilm inhibitory concentration of growth (bMIC) and biofilm eradication concentration (MBEC). Overnight cultures of C. crescentus and S. aureus were grown and diluted 100-fold into appropriate nutrient media. Aliquots of the diluted suspension were transferred into wells of 96-well plates (150 μL/well). 2-fold serial dilutions were performed for compound-containing wells. For every experiment, three replicates for each compound concentration tested were included. After transferring aliquots of the suspension, the plates were closed with specialized lids that have protruding pins (Nunc STP System), and the plates were sealed using Parafilm®. The plates were incubated in a static incubator at 30° C. (C. crescentus) or 37° C. (S. aureus) for 24 hours. After the cells had formed biofilms on the surface of the pins, the pins were rinsed by dipping them in M2 (C. crescentus) or PBS (S. aureus) solutions. To rinse the pins, clean, sterile 96-well plates were used (aliquots of 200 μL/well); each rinse lasted 10 sec. After washing away planktonic cells loosely bound to biofilms, the pins were inserted into a 96-well plate that was pre-aliquoted with nutrient media containing antibiotics (2-fold dilutions, a final volume of 150 μL/well). The plates were sealed with Parafilm®, and incubated for 17 hours, and the bMIC was measured at the end of the incubation by visual inspection. […] The plates were sealed with Parafilm®, incubated for 24 hours, and the MBEC was measured at the end of the incubation by visual inspection.
(§5) Membrane-active compounds are also efficient at eradicating biofilm-associated cells (Table 2). […] To determine the efficacy of antibiotics against biofilms, the minimum biofilm inhibitory concentration (bMIC) and the minimum biofilm eradication concentration (MBEC) were measured. […] After 24 hours of exposure to compounds, the lowest concentration of antibiotic that inhibited planktonic cell growth in the wells (bMIC) was determined.

S. aureus FRI 100 [5] = assay: Minimum biofilm inhibitory concentration (bMIC); assay type: cell-based, Staphylococcus aureus; conditions: S. aureus FRI 100 biofilm
Procedure: as §4, §5

C. crescentus CB15N [6] = assay: Minimum biofilm eradication concentration (MBEC); assay type: cell-based, Caulobacter crescentus
Procedure: (§6) Determination of the minimum biofilm inhibitory concentration of growth (bMIC) and biofilm eradication concentration (MBEC). Overnight cultures of C. crescentus and S. aureus were grown and diluted 100-fold into appropriate nutrient media. Aliquots of the diluted suspension were transferred into wells of 96-well plates (150 μL/well). 2-fold serial dilutions were performed for compound-containing wells. For every experiment, three replicates for each compound concentration tested were included. After transferring aliquots of the suspension, the plates were closed with specialized lids that have protruding pins (Nunc STP System), and the plates were sealed using Parafilm®. The plates were incubated in a static incubator at 30° C. (C. crescentus) or 37° C. (S. aureus) for 24 hours. After the cells had formed biofilms on the surface of the pins, the pins were rinsed by dipping them in M2 (C. crescentus) or PBS (S. aureus) solutions. To rinse the pins, clean, sterile 96-well plates were used (aliquots of 200 μL/well); each rinse lasted 10 sec. After washing away planktonic cells loosely bound to biofilms, the pins were inserted into a 96-well plate that was pre-aliquoted with nutrient media containing antibiotics (2-fold dilutions, a final volume of 150 μL/well). The plates were sealed with Parafilm®, and incubated for 17 hours, and the bMIC was measured at the end of the incubation by visual inspection. After the bMIC run, the rinse steps were repeated to remove planktonic cells, and the pins were inserted into a 96-well plate that was pre-aliquoted with drug-free nutrient media (aliquots of 150 μL/well). The plates were sealed with Parafilm®, incubated for 24 hours, and the MBEC was measured at the end of the incubation by visual inspection.
After performing bMIC experiments, biofilms growing on the pins of the lid were transferred to nutrient media devoid of antibiotics to measure the minimum concentration of antibiotic that prevented planktonic growth from biofilms in antibiotic-free nutrient media (MBEC). MBEC indicates whether the exposure to antimicrobial agent used during the bMIC experiment sterilized biofilm-associated cells. […] CCCP was the only effective antibiotic against S. aureus biofilms. Since CCCP was not as effective as DCAP at killing stationary cells, it was hypothesized that this variability in efficacy of membrane-active drugs is in part caused by changes in membrane composition (i.e., membrane proteins and lipid content) at different developmental stages of bacterial cells. […]

S. aureus FRI 100 [7] = assay: Minimum biofilm eradication concentration (MBEC); assay type: cell-based, Staphylococcus aureus; conditions: S. aureus FRI 100 biofilm
Procedure: as §6
After performing bMIC experiments, biofilms growing on the pins of the lid were transferred to nutrient media devoid of antibiotics to measure the minimum concentration of antibiotic that prevented planktonic growth from biofilms in antibiotic-free nutrient media (MBEC). […]

E. coli BW25113 ΔtolC = assay: MIC of DCAP analogs, LB media, macrodilution (CLSI); assay type: cell-based; conditions: Escherichia coli
Procedure: Luria-Bertani (LB) media (10 g/L tryptone, 10 g/L NaCl, 5 g/L yeast extract, pH 7.0) was used to grow all the strains represented in Tables 5 and 6. All the cultures were grown at 37° C. All the E. coli strains were grown while shaking at 200 rpm and the clinical pathogens were statically incubated. […]

Acinetobacter baumannii = assay: MIC of DCAP analogs, LB media, microdilution (CLSI); assay type: cell-based; conditions: microdilution (Table 6)
Procedure: (§7) Luria-Bertani (LB) media (10 g/L tryptone, 10 g/L NaCl, 5 g/L yeast extract, pH 7.0) was used to grow all the strains represented in Tables 5 and 6. All the cultures were grown at 37° C. All the E. coli strains were grown while shaking at 200 rpm and the clinical pathogens were statically incubated.
(§8) For clinical pathogenic organisms including S. typhimurium, V. cholera, S. boydii, K pneumonia, E. aerogenes, A. baumannii, E. tarda, and M. morganii strains, liquid LB media in 96-well microplates (100 μL/well) and the microdilution method from the CLSI guidelines were used.

Edwardsiella tarda = assay: as above; assay type: cell-based; conditions: microdilution (Table 6)
Procedure: as §7, §8

Enterobacter aerogenes = assay: as above; assay type: cell-based; conditions: Klebsiella aerogenes, microdilution (Table 6)
Procedure: as §7, §8

Klebsiella pneumonia = assay: as above; assay type: cell-based; conditions: Klebsiella pneumoniae, microdilution (Table 6)
Procedure: as §7, §8

Morganella morganii = assay: as above; assay type: cell-based; conditions: microdilution (Table 6)
Procedure: as §7, §8

Salmonella typhimurium = assay: as above; assay type: cell-based; conditions: Salmonella enterica, microdilution (Table 6)
Procedure: as §7, §8

Shigella boydii = assay: as above; assay type: cell-based; conditions: microdilution (Table 6)
Procedure: as §7, §8

Vibrio cholera = assay: as above; assay type: cell-based; conditions: Vibrio cholerae
Procedure: as §7, §8

[8] = BW25113, read-out: MIC (ΔtolC E. coli)

## CC1(C)S[C@@H]2[C@H](NC(=O)[C@H](N)c3ccccc3)C(=O)N2[C@H]1C(=O)O [Amp, ampicillin]
C. crescentus CB15N [1]
  MIC: 50 mg/L
C. crescentus CB15N [2]
  MSC: >400 µg/mL
S. aureus FRI 100 [3]
  MSC: 100 µg/mL
C. crescentus CB15N [4]
  bMIC: 100 µg/mL
S. aureus FRI 100 [5]
  bMIC: 0.8 µg/mL
C. crescentus CB15N [6]
  MBEC: >400 µg/mL
C. crescentus CB15N [6]; listed as ampicillin
  MBEC: > 400 µM
S. aureus FRI 100 [7]
  MBEC: >200 µg/mL

## OCC(CO)(CO)NC[C@@H](O)Cn1c2ccc(Cl)cc2c2cc(Cl)ccc21 [Compound 2]
E. coli BW25113 ΔtolC; [8]
  MIC: 20 µM

## OCC(CO)(CO)NC[C@H](O)Cn1c2ccc(Cl)cc2c2cc(Cl)ccc21 [Compound 3]
E. coli BW25113 ΔtolC; [8]
  MIC: 20 µM

## OCC(CO)(CO)NC[C@@H](O)Cn1c2ccccc2c2ccccc21 [Compound 4]
E. coli BW25113 ΔtolC; [8]
  MIC: > 80 µM

## OCC(CO)NCC(O)Cn1c2ccc(Cl)cc2c2cc(Cl)ccc21 (stereo not drawn) [Compound 5]
E. coli BW25113 ΔtolC; [8]
  MIC: 20 µM

## CCC(CC)NCC(O)Cn1c2ccc(Cl)cc2c2cc(Cl)ccc21 (stereo not drawn) [Compound 6]
E. coli BW25113 ΔtolC; [8]
  MIC: 5 µM

## CCCCCNCC(O)Cn1c2ccc(Cl)cc2c2cc(Cl)ccc21 (stereo not drawn) [Compound 7]
E. coli BW25113 ΔtolC; [8]
  MIC: 5 µM

## CC(C)CCNCC(O)Cn1c2ccc(Cl)cc2c2cc(Cl)ccc21 (stereo not drawn) [Compound 8]
E. coli BW25113 ΔtolC; BW25113
  MIC: 2.5 µM
E. coli BW25113 ΔtolC; [8]
  MIC: 2.5 µM
Acinetobacter baumannii
  MIC: 12.5 µM
Edwardsiella tarda
  MIC: 25 µM
Enterobacter aerogenes
  MIC: 50 µM
Klebsiella pneumonia
  MIC: 50 µM
Morganella morganii
  MIC: 50 µM
Salmonella typhimurium
  MIC: 50 µM
Shigella boydii
  MIC: 25 µM
Vibrio cholera
  MIC: 6.25 µM

## OC(CNC1CCCCC1)Cn1c2ccc(Cl)cc2c2cc(Cl)ccc21 (stereo not drawn) [Compound 9]
E. coli BW25113 ΔtolC; BW25113
  MIC: 2.5 µM
E. coli BW25113 ΔtolC; [8]
  MIC: 2.5 µM
Acinetobacter baumannii
  MIC: 100 µM
Edwardsiella tarda
  MIC: 200 µM
Enterobacter aerogenes
  MIC: > 200 µM
Klebsiella pneumonia
  MIC: > 200 µM
Morganella morganii
  MIC: > 200 µM
Salmonella typhimurium
  MIC: > 200 µM
Shigella boydii
  MIC: 200 µM
Vibrio cholera
  MIC: 25 µM

## CCC(CC)CNCC(O)Cn1c2ccc(Cl)cc2c2cc(Cl)ccc21 (stereo not drawn) [Compound 10]
E. coli BW25113 ΔtolC; BW25113
  MIC: 2.5 µM
E. coli BW25113 ΔtolC; [8]
  MIC: 2.5 µM
Acinetobacter baumannii
  MIC: 25 µM
Edwardsiella tarda
  MIC: 12.5 µM
Enterobacter aerogenes
  MIC: > 200 µM
Klebsiella pneumonia
  MIC: > 200 µM
Morganella morganii
  MIC: > 200 µM
Salmonella typhimurium
  MIC: 200 µM
Shigella boydii
  MIC: 25 µM
Vibrio cholera
  MIC: 6.25 µM

## CC(C)(C)NCC(O)Cn1c2ccc(Cl)cc2c2cc(Cl)ccc21 (stereo not drawn) [Compound 11]
E. coli BW25113 ΔtolC; [8]
  MIC: 40 µM

## OCC(CO)(CO)NCC(O)CN1CCc2cc(Cl)ccc21 (stereo not drawn) [Compound 12]
E. coli BW25113 ΔtolC; [8]
  MIC: > 40 µM

## CC(CO)(CO)NCC(O)Cn1c2ccc(Cl)cc2c2cc(Cl)ccc21 (stereo not drawn) [Compound 13]
E. coli BW25113 ΔtolC; [8]
  MIC: 40 µM

## CCC(CO)(CO)NCC(O)Cn1c2ccc(Cl)cc2c2cc(Cl)ccc21 (stereo not drawn) [Compound 14]
E. coli BW25113 ΔtolC; [8]
  MIC: 20 µM
